Assay results reported in patent US20230270764A1, “COMPOSITION COMPRISING CANNABINOIDS, TERPENES, AND FLAVONOIDS FOR TREATING DEPRESSION” (priority 2020, published 2023).

Tests used:
Type in all cases: in vivo
[1] = tested on: LPS-injected mice; assay: Sucrose preference test in the LPS-induced model of depression; details: Example 9; male C57BL/6, i.p. 1 h before LPS 330 µg/kg; mg/kg: CBD 30; CBDA 1 or 5; BCP 50; kaempferol 30; CBD 30 plus THC 10; CBD 30 plus kaempferol 30
From the text: In a preliminary screening experiment, subjects were 4-6 months-old male C57BL/6 (Jackson Laboratories, USA). Animals were housed 2-3/cage, kept in an air-conditioned room (23+°C) and given ad libitum access to food and water. The mice were kept in a reversed light/dark cycle, with lights off from 7 a.m. to 7 p.m. All experiments were approved by the Hebrew University of Jerusalem Ethics Committee on Animal Care and Use. In preparation for the Sucrose Preference Test, mice were habituated 2-3 times to sucrose drinking, by exposing them overnight to two graduated tubes, one containing water and the other containing sucrose solution (1%, w/v). Water and sucrose consumption were measured, and sucrose preference was computed by dividing the amount of sucrose consumed by drinking (ml sucrose) by the total drinking volume (ml of sucrose + water). One day later, the weight of the mice and the food in their cages was weighed for later analysis of food consumption and body weight changes. Groups of mice were injected intraperitoneally (i.p.) with either vehicle (cremophor, ethanol and PBS, 1:1:18 (v/v/v)) or a cannabinoid-based formulation (by itself or with another cannabinoid, or a terpene or a flavonoid). One hour later, each of these groups was injected with LPS (330 µg/kg). All injections were administered at a dose of 10 ml/kg. Four hours following the LPS injection, mice were tested in the Open-Field Test. In this test, the measured locomotor activity reflects not only motor capacity, but particularly the innate motivation for spatial exploration (which increases the distance travelled) and the anxiety level (which reduces the distance travelled, in general, and particularly the distance and time spent in the center of the open field). Each subject was placed near one of the walls of a white 50 X 50 cm^2 arena with 40 cm high walls. The distance travelled (cm), the velocity of the movement (cm/second), the time spent (seconds), distance travelled (cm) in the center area of the arena, as well as the number of entries from the perimeter area into the center of the arena were automatically measured over a 4-minute period, using EthoVision XT video tracking system and software (Noldus, The Netherlands). Twenty-four hours after the LPS injection, mice were tested in the Social Exploration Test. […] Social exploration, defined as the time of near contact between the nose of the subject and the juvenile in the small cage was recorded for 4 min, using computerized in-house software. Sucrose preference was assessed, as described above, between 8 to 27 hr post LPS injection. Body weight and weight of the food were measured two hours before the LPS injection, and again after 24 hours, and the change in body weight and food consumption were calculated. […]

[2] = tested on: LPS-injected mice; assay: Body weight change and food consumption in the LPS-induced model of depression
From the text: Animals were housed 2-3/cage, kept in an air-conditioned room (23+°C) and given ad libitum access to food and water. The mice were kept in a reversed light/dark cycle, with lights off from 7 a.m. to 7 p.m. All experiments were approved by the Hebrew University of Jerusalem Ethics Committee on Animal Care and Use. In preparation for the Sucrose Preference Test, mice were habituated 2-3 times to sucrose drinking, by exposing them overnight to two graduated tubes, one containing water and the other containing sucrose solution (1%, w/v). Water and sucrose consumption were measured, and sucrose preference was computed by dividing the amount of sucrose consumed by drinking (ml sucrose) by the total drinking volume (ml of sucrose + water). One day later, the weight of the mice and the food in their cages was weighed for later analysis of food consumption and body weight changes. Groups of mice were injected intraperitoneally (i.p.) with either vehicle (cremophor, ethanol and PBS, 1:1:18 (v/v/v)) or a cannabinoid-based formulation (by itself or with another cannabinoid, or a terpene or a flavonoid). One hour later, each of these groups was injected with LPS (330 µg/kg). All injections were administered at a dose of 10 ml/kg. Four hours following the LPS injection, mice were tested in the Open-Field Test. In this test, the measured locomotor activity reflects not only motor capacity, but particularly the innate motivation for spatial exploration (which increases the distance travelled) and the anxiety level (which reduces the distance travelled, in general, and particularly the distance and time spent in the center of the open field). Each subject was placed near one of the walls of a white 50 X 50 cm^2 arena with 40 cm high walls. The distance travelled (cm), the velocity of the movement (cm/second), the time spent (seconds), distance travelled (cm) in the center area of the arena, as well as the number of entries from the perimeter area into the center of the arena were automatically measured over a 4-minute period, using EthoVision XT video tracking system and software (Noldus, The Netherlands). Twenty-four hours after the LPS injection, mice were tested in the Social Exploration Test. In this test, the subject was placed in an observation cage containing a small metal wire mesh cage with a conspecific mouse inside it. Social exploration, defined as the time of near contact between the nose of the subject and the juvenile in the small cage was recorded for 4 min, using computerized in-house software. Sucrose preference was assessed, as described above, between 8 to 27 hr post LPS injection. Body weight and weight of the food were measured two hours before the LPS injection, and again after 24 hours, and the change in body weight and food consumption were calculated.
This particular study was conducted in several experimental cohorts, and not all compounds and all measures were studied in all cohort. However, each cohort included a vehicle-treated group; therefore, the scores in each behavioral test were converted to % of mean vehicle-treated group in every individual cohort/experiment. Statistical comparisons were computed using SPSS software and consisted of one-way analyses of variance (ANOVA), followed by post-hoc comparisons with the Student-Newman-Keuls method.

[3] = tested on: hippocampal microglia; assay: Hippocampal microglia density and morphology (Iba-1 immunohistochemistry) in LPS-injected mice
Experimental: Given the suppressive effect of CBD on hippocampal microglia numbers in LPS-injected mice, the effect of Cannabidiolic acid (CBDA), as well as a combination of CBD with the flavonoid kaempferol, was examined to determine if they also produce a similar effect. Mice were firstly injected (i.p.) with CBDA or CBD/kaempferol combination, and 1 hr later were injected with LPS ([…] in 10 ml/kg saline). Brains were removed 24 hr later and prepared for immunohistochemistry, using the microglia marker Iba-1.

[4] = young-adult male mice, CBD 30 mg/kg i.p. 3 consecutive days
[5] = young-adult female mice, CBDA 0.5, 1, 5 mg/kg
[6] = young-adult male mice, CBDA 1, 5 mg/kg, CBD 25 and CBDA 1 mg/kg

SMILES | sucrose preference compared with vehicle-treated groups [1] | food consumption over 24 hr vs vehicle-treated group ([2]; Example 9, male C57BL/6, i.p. 1 h before LPS 330 µg/kg, mg/kg: CBD 30, CBD 30 plus THC 10, cannabinol 10, CBD 30 plus BCP 50) | LPS-induced body weight loss and decrease in food consumption ([2]; adult (6-9 months-old) male mice, acute CBD) | food consumption and body weight ([2]; adult and young adult female mice, acute CBD, saline or LPS) | food consumption among the LPS-injected groups ([2]; adult female mice, acute CBD (#p<0.05)) | LPS-induced decreases in body weight and food consumption ([2]; young adult (2.5-3 months old) male mice, acute CBD) | LPS-induced body-weight loss [2, 4] | hippocampal microglia density, CBD- vs Veh-treated LPS mice [3, 4] | food consumption vs Vehicle-treated LPS-injected mice ([2]; young-adult female mice, CBDA 1 mg/kg) | body weight reduction [2, 5] | body weight reduction and food consumption [2, 6] | hippocampal microglia density vs Vehicle ([3]; young-adult female mice, CBDA 1 mg/kg (not 0.5 or 5)) | number of branch points of microglia processes vs Vehicle ([3]; young-adult female mice, CBDA 5 mg/kg) | microglia soma area and processes length [3, 5] | number of branch points of microglia processes vs Vehicle ([3]; young-adult male mice, CBDA 1 mg/kg) | hippocampal microglia density vs Vehicle ([3]; young-adult male mice, CBDA 1 mg/kg (not 5)) | microglia soma area and processes length [3, 6]
C=C(C)[C@@H]1CCC(C)=C[C@H]1c1c(O)cc(CCCCC)cc1O [CBD, cannabidiol] | significantly increased sucrose preference | consumed significantly more food | not influenced by CBD administration | None of these parameters was influenced by treatment with CBD | significant difference between the CBD- and vehicle-treated group | None of these parameters was influenced by treatment with CBD | no effects | significantly reduced |  |  |  |  |  |  |  |  | 
C=C(C)[C@@H]1CCC(C)=C[C@H]1c1c(O)cc(CCCCC)c(C(=O)O)c1O [CBDA, Cannabidiolic acid] | significantly increased sucrose preference |  |  |  |  |  |  |  | significantly increased | no significant difference | no significant differences | significantly reduced | significantly increased | no significant difference | significantly increased | significantly reduced | no significant difference
O=c1c(O)c(-c2ccc(O)cc2)oc2cc(O)cc(O)c12 [kaempferol] | significantly increased sucrose preference |  |  |  |  |  |  |  |  |  |  |  |  |  |  |  | 
